Assays:
Assay type in all cases: cell-based
[1] = system: Staphylococcus aureus ATCC25923; experiment: Disc growth inhibition halo test (Example 2)
[2] = system: Staphylococcus epidermidis ATCC25923; experiment: Disc growth inhibition halo test (Example 2)
[3] = system: Streptococcus pneumoniae ATCC14325; experiment: Disc growth inhibition halo test (Example 2)
[4] = system: Streptococcus pyogenes ATCC2367; experiment: Disc growth inhibition halo test (Example 2)
[5] = system: Enterococcus faecium ISP133/04; experiment: Disc growth inhibition halo test (Example 2)
[6] = system: Enterococcus faecalis ATCC29212; experiment: Disc growth inhibition halo test (Example 2)
[7] = system: Escherichia coli ATCC25922; experiment: Disc growth inhibition halo test (Example 2)
[8] = system: Klebsiella pneumoniae ATCC4352; experiment: Disc growth inhibition halo test (Example 2)
[9] = system: Pseudomonas aeruginosa PAOI; experiment: Disc growth inhibition halo test (Example 2)
[10] = system: Acinetobacter baumanii UDP456; experiment: Disc growth inhibition halo test (Example 2)
[11] = system: Citrobacter freundii ISP1949/99; experiment: Disc growth inhibition halo test (Example 2)
[12] = system: Enterobacter aerogenes ATCC13048; experiment: Disc growth inhibition halo test (Example 2)
[13] = system: 12 bacterial strains; experiment: Antibacterial activity of four copper compounds, summary (Example 2); settings: discs 200-800 μg, summary in words
[14] = system: Enterococcus faecalis ATCC29212; experiment: Sensidisc and thin cloth growth inhibition test (Example 3)
Method: (§1) In this example, the antimicrobial activity of the invention was determined by testing on sensidiscs. On order to do this, they were prepared 5 mm filter paper discs, embedded with various concentrations of compound Cu4SO4(OH)6 (Alkaline Copper Sulfate) of the study dissolved in DMSO (0 μg, 200 μg, 400 μg, 600 μg, 800 μg). In addition, pieces of cloth of about 2×2 cm were prepared and embedded with the new product. Paper discs and fabric were deposited on a background lawn, which was performed as follows:
(§2) From a bacterial culture of 16 hours, with the strain of interest, it was performed a 1/30 dilution of the culture with fresh medium and incubated under stirring at 37° C. until reaching the exponential growth phase (D0600 nm 0.4-0.5). It was taken an aliquot of 100 μL of the culture in exponential phase, and deposited in 4 mL of Mueller-Hinton soft agar at 0.8% (previously melted and stabilized at 50° C.). The mixture was deposited on a Petri dish with 20 mL of Mueller-Hinton agar base. Once the agar was gelled, each of the discs with different amounts of the test compound were deposited on the background lawn, and incubated at 37° C. during 48 hours.
(§3) Experiments were performed in triplicate in independently, using as negative control discs with the solvent DMSO alone and cloth without the product of study. As positive control were used commercial discs used with 30 μg of antibiotic Kanamycin (Km).

[15] = system: Klebsiella pneumoniae ATCC4352; experiment: as above
Method: as §1, §2, §3

[16] = system: Pseudomonas aeruginosa PAOI; experiment: as above
Method: as §1, §2, §3

[17] = system: Staphylococcus aureus ATCC25923; experiment: as above
Method: as §1, §2, §3

[18] = system: Streptococcus pneumonia ATCC14325; experiment: as above
Method: as §1, §2, §3

[19] = system: Streptococcus pyogenes ATCC2367; experiment: as above
Method: as §1, §2, §3

[20] = system: Acinetobacter baumannii UDP456; experiment: as above; design: unit not given here
Method: as §1, §2, §3

[21] = system: Citrobacter freundii ISP1949/99; experiment: as above; design: unit not given here
Method: as §1, §2, §3

[22] = system: Enterobacter aerogenes ATCC13048; experiment: as above; design: unit not given here
Method: as §1, §2, §3

[23] = system: Enterococcus faecium ISP133/04; experiment: as above; design: unit not given here
Method: as §1, §2, §3

[24] = system: Escherichia coli ATCC25922; experiment: as above; design: unit not given here
Method: as §1, §2, §3

[25] = system: Staphylococcus epidermidis; experiment: as above; design: unit not given here
Method: as §1, §2, §3

[26] = system: all bacterial strains tested; experiment: Antibacterial activity of alkaline copper sulfate, summary (Example 3); settings: summary in words of Table 5
Method: as §1, §2
Experiments were performed in triplicate in independently, using as negative control discs with the solvent DMSO alone and cloth without the product of study. […]

[Cl-].[Cu+2].[Cu+2].[OH-].[OH-].[OH-] [copper oxychloride compound (II), copper oxychloride (II)]
Growth inhibition zone ([1]; 200 μg on 5 mm disc): 6.0 ± 1.0 mm | Growth inhibition zone ([1]; 400 μg on 5 mm disc): 10.3 ± 0.6 mm | Growth inhibition zone ([1]; 600 μg on 5 mm disc): 11.7 ± 0.6 mm | Growth inhibition zone ([1]; 800 μg on 5 mm disc): 14.0 ± 1.0 mm | Growth inhibition zone ([2]; 200 μg on 5 mm disc): 12.0 ± 0.6 mm | Growth inhibition zone ([2]; 400 μg on 5 mm disc): 14.3 ± 0.6 mm | Growth inhibition zone ([2]; 600 μg on 5 mm disc): 13.7 ± 1.5 mm | Growth inhibition zone ([2]; 800 μg on 5 mm disc): 14.6 ± 0.6 mm | Growth inhibition zone ([3]; 200 μg on 5 mm disc): 5.0 ± 1.0 mm | Growth inhibition zone ([3]; 400 μg on 5 mm disc): 8.0 ± 0.7 mm | Growth inhibition zone ([3]; 600 μg on 5 mm disc): 9.0 ± 1.0 mm | Growth inhibition zone ([3]; 800 μg on 5 mm disc): 11.0 ± 1.2 mm | Growth inhibition zone ([4]; 200 μg on 5 mm disc): 5.0 ± 1.0 mm | Growth inhibition zone ([4]; 400 μg on 5 mm disc): 6.0 ± 1.0 mm | Growth inhibition zone ([4]; 600 μg on 5 mm disc): 7.0 ± 1.2 mm | Growth inhibition zone ([4]; 800 μg on 5 mm disc): 8.0 ± 1.4 mm | Growth inhibition zone ([5]; 200 μg on 5 mm disc): 6.0 ± 1.0 mm | Growth inhibition zone ([5]; 400 μg on 5 mm disc): 6.0 ± 1.0 mm | Growth inhibition zone ([5]; 600 μg on 5 mm disc): 6.0 ± 1.0 mm | Growth inhibition zone ([5]; 800 μg on 5 mm disc): 6.0 ± 1.0 mm | Growth inhibition zone ([6]; 200 μg on 5 mm disc): 6.0 ± 1.0 mm | Growth inhibition zone ([6]; 400 μg on 5 mm disc): 6.0 ± 1.0 mm | Growth inhibition zone ([6]; 600 μg on 5 mm disc): 6.0 ± 1.0 mm | Growth inhibition zone ([6]; 800 μg on 5 mm disc): 6.0 ± 1.0 mm | Growth inhibition zone ([7]; 200 μg on 5 mm disc): 13.3 ± 1.4 mm | Growth inhibition zone ([7]; 400 μg on 5 mm disc): 13.0 ± 0.7 mm | Growth inhibition zone ([7]; 600 μg on 5 mm disc): 15.0 ± 0.7 mm | Growth inhibition zone ([7]; 800 μg on 5 mm disc): 13.3 ± 0.7 mm | Growth inhibition zone ([8]; 200 μg on 5 mm disc): 7.3 ± 0.6 mm | Growth inhibition zone ([8]; 400 μg on 5 mm disc): 8.7 ± 0.6 mm | Growth inhibition zone ([8]; 600 μg on 5 mm disc): 9.7 ± 0.6 mm | Growth inhibition zone ([8]; 800 μg on 5 mm disc): 10.0 mm | Growth inhibition zone ([9]; 200 μg on 5 mm disc): 6.3 ± 1.5 mm | Growth inhibition zone ([9]; 400 μg on 5 mm disc): 6.7 ± 1.2 mm | Growth inhibition zone ([9]; 600 μg on 5 mm disc): 8.3 ± 0.6 mm | Growth inhibition zone ([9]; 800 μg on 5 mm disc): 3.3 ± 1.7 mm | Growth inhibition zone ([10]; 200 μg on 5 mm disc): 11.7 ± 0.6 mm | Growth inhibition zone ([10]; 400 μg on 5 mm disc): 15.7 ± 0.6 mm | Growth inhibition zone ([10]; 600 μg on 5 mm disc): 17.0 ± 1.0 mm | Growth inhibition zone ([10]; 800 μg on 5 mm disc): 19.7 ± 0.6 mm | Growth inhibition zone ([11]; 200 μg on 5 mm disc): 8.0 ± 1.0 mm | Growth inhibition zone ([11]; 400 μg on 5 mm disc): 10.7 ± 1.5 mm | Growth inhibition zone ([11]; 600 μg on 5 mm disc): 11.3 ± 0.6 mm | Growth inhibition zone ([11]; 800 μg on 5 mm disc): 11.3 ± 1.5 mm | Growth inhibition zone ([12]; 200 μg on 5 mm disc): 7.3 ± 1.5 mm | Growth inhibition zone ([12]; 400 μg on 5 mm disc): 3.7 ± 1.5 mm | Growth inhibition zone ([12]; 600 μg on 5 mm disc): 9.7 ± 0.6 mm | Growth inhibition zone ([12]; 800 μg on 5 mm disc): 9.7 ± 1.5 mm | antibacterial activity [13]: antibacterial activity against Staphylococcus aureus, Staphylococcus epidermidis, Streptococcus pyogenes, Escherichia coli and Acinetobacter baumannii

O=S(=O)([O-])[O-].[Cu+2].[Cu+2].[Cu+2].[Cu+2].[OH-].[OH-].[OH-].[OH-].[OH-].[OH-] [Alkaline Copper Sulphate, Alkaline Copper Sulfate]
Growth inhibition zone ([14]; 200 μg on 5 mm disc): 6.0 ± 1.0 mm | Growth inhibition zone ([14]; 400 μg on 5 mm disc): 6.0 ± 1.0 mm | Growth inhibition zone ([14]; 600 μg on 5 mm disc): 6.0 ± 1.0 mm | Growth inhibition zone ([14]; 800 μg on 5 mm disc): 6.0 ± 1.0 mm | Growth inhibition zone ([15]; 200 μg on 5 mm disc): 7.3 ± 0.6 mm | Growth inhibition zone ([15]; 400 μg on 5 mm disc): 8.7 ± 0.6 mm | Growth inhibition zone ([15]; 600 μg on 5 mm disc): 9.7 ± 0.6 mm | Growth inhibition zone ([15]; 800 μg on 5 mm disc): 10.0 mm | Growth inhibition zone ([16]; 200 μg on 5 mm disc): 6.3 ± 1.5 mm | Growth inhibition zone ([16]; 400 μg on 5 mm disc): 6.7 ± 1.2 mm | Growth inhibition zone ([16]; 600 μg on 5 mm disc): 8.3 ± 0.6 mm | Growth inhibition zone ([16]; 800 μg on 5 mm disc): 8.3 ± 1.7 mm | Growth inhibition zone ([17]; 200 μg on 5 mm disc): 6.0 ± 1.0 mm | Growth inhibition zone ([17]; 400 μg on 5 mm disc): 10.3 ± 0.6 mm | Growth inhibition zone ([17]; 600 μg on 5 mm disc): 11.7 ± 0.6 mm | Growth inhibition zone ([17]; 800 μg on 5 mm disc): 14.0 ± 1.0 mm | Growth inhibition zone ([18]; 200 μg on 5 mm disc): 5.0 ± 1.0 mm | Growth inhibition zone ([18]; 400 μg on 5 mm disc): 8.0 ± 0.7 mm | Growth inhibition zone ([18]; 600 μg on 5 mm disc): 9.0 ± 1.0 mm | Growth inhibition zone ([18]; 800 μg on 5 mm disc): 11.0 ± 1.2 mm | Growth inhibition zone ([19]; 200 μg on 5 mm disc): 5.0 ± 1.0 mm | Growth inhibition zone ([19]; 400 μg on 5 mm disc): 6.0 ± 1.0 mm | Growth inhibition zone ([19]; 600 μg on 5 mm disc): 7.0 ± 1.2 mm | Growth inhibition zone ([19]; 800 μg on 5 mm disc): 8.0 ± 1.4 mm | Growth inhibition zone ([20]; 200 μg on 5 mm disc): 11.7 ± 0.6 | Growth inhibition zone ([20]; 400 μg on 5 mm disc): 15.7 ± 0.6 | Growth inhibition zone ([20]; 600 μg on 5 mm disc): 17.0 ± 1.0 | Growth inhibition zone ([20]; 800 μg on 5 mm disc): 19.7 ± 0.6 | Growth inhibition zone ([21]; 200 μg on 5 mm disc): 8.0 ± 1.0 | Growth inhibition zone ([21]; 400 μg on 5 mm disc): 10.7 ± 1.5 | Growth inhibition zone ([21]; 600 μg on 5 mm disc): 11.3 ± 0.6 | Growth inhibition zone ([21]; 800 μg on 5 mm disc): 11.3 ± 1.5 | Growth inhibition zone ([22]; 200 μg on 5 mm disc): 7.3 ± 1.5 | Growth inhibition zone ([22]; 400 μg on 5 mm disc): 9.7 ± 1.5 | Growth inhibition zone ([22]; 600 μg on 5 mm disc): 9.7 ± 0.6 | Growth inhibition zone ([22]; 800 μg on 5 mm disc): 9.7 ± 1.5 | Growth inhibition zone ([23]; 200 μg on 5 mm disc): 6.0 ± 1.0 | Growth inhibition zone ([23]; 400 μg on 5 mm disc): 6.0 ± 1.0 | Growth inhibition zone ([23]; 600 μg on 5 mm disc): 6.0 ± 1.0 | Growth inhibition zone ([23]; 800 μg on 5 mm disc): 6.0 ± 1.0 | Growth inhibition zone ([24]; 200 μg on 5 mm disc): 13.3 ± 1.4 | Growth inhibition zone ([24]; 400 μg on 5 mm disc): 13.0 ± 0.7 | Growth inhibition zone ([24]; 600 μg on 5 mm disc): 15.0 ± 0.7 | Growth inhibition zone ([24]; 800 μg on 5 mm disc): 13.3 ± 0.7 | Growth inhibition zone ([25]; 200 μg on 5 mm disc): 12.0 ± 0.6 | Growth inhibition zone ([25]; 400 μg on 5 mm disc): 14.3 ± 0.6 | Growth inhibition zone ([25]; 600 μg on 5 mm disc): 13.7 ± 1.5 | Growth inhibition zone ([25]; 800 μg on 5 mm disc): 14.6 ± 0.6 | antibacterial activity ([26]; listed as Alkaline Copper Sulfate (OH)6): antibacterial activity on all bacterial strains tested | antibacterial activity ([26]; listed as product of invention): spectrum of antibacterial activity greater than the hydroxyphosphate copper compounds (II) and copper oxychloride (II)

Source: patent US9924714B2, “Impregnatable matrix of plant, animal or synthetic origin or mixtures of same, containing a uniformly distributed antimicrobial compound, method for impregnating said matrix with a compound, and use thereof in the production of antimicrobial elements” (COMPAÑIA MINERA SAN GERONIMO, priority 2013, dated 2018)
